Measurements as given in ChEMBL document CHEMBL5625276, “Antascomicin B stabilizes FKBP51-Akt1 complexes as a molecular glue” (Bioorg Med Chem Lett, 2024).
The source made the active and inactive calls. The rule behind the calls is not given here.

Legend:
[1] = target: T1, Peptidyl-prolyl cis-trans isomerase FKBP5 (Homo sapiens, UniProt Q13451); assay: Binding affinity to human FKBP51 FK1 domain expressed in Escherichia coli BL21 DE3 Gold assessed as dissociation constant incubated for 30 mins by competitive fluorescence polarization assay
T1 sequence (Q13451 whole entry): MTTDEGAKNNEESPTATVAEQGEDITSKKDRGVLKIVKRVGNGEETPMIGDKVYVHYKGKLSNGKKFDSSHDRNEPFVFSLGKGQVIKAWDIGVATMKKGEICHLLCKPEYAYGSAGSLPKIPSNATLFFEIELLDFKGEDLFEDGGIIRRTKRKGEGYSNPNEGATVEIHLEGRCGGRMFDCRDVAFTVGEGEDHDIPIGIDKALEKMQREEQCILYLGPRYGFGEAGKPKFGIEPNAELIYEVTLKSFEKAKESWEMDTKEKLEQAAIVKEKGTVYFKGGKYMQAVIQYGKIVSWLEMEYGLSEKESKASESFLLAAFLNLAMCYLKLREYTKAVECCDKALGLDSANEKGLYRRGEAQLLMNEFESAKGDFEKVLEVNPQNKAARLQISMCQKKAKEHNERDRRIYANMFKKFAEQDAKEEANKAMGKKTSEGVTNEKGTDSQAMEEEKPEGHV

HEK293T [2] = assay: Stabilization of FLAG-tagged human FKBP51 K52pBpa incorporation mutant/human Akt T308A/S473A mutant in HEK293T cells assessed as photocrosslinking adduct formation at 1 uM pretreated with compound followed by UV irradiation for 30 mins by immunoprecipitation based Western blot analysis; assay type: cell-based
[3] = target: Peptidyl-prolyl cis-trans isomerase FKBP1A (Homo sapiens, UniProt P62942); assay: Binding affinity to human FKBP12 expressed in Escherichia coli BL21 DE3 Gold assessed as dissociation constant incubated for 30 mins by competitive fluorescence polarization assay
HEK293T [4] = assay: Stabilization of FLAG tagged human FKBP51 P120pBpa incorporation mutant/human Akt complex in HEK293T cells assessed as increase in Akt1 coimmunoprecipitation at 1 uM in absence of UV irradiation by immunoprecipitation based Western blot analysis; assay type: cell-based
HEK293T [5] = assay: Stabilization of FLAG tagged human FKBP51 K52pBpa incorporation mutant/human Akt complex in HEK293T cells assessed as increase in photocrosslinking at 1 uM pretreated with compound followed by UV irradiation for 30 mins by immunoprecipitation based Western blot analysis; assay type: cell-based
HEK293T [6] = assay: Stabilization of FLAG-tagged human FKBP51 K52pBpa incorporation mutant/human Akt S473A mutant in HEK293T cells assessed as photocrosslinking adduct formation at 1 uM pretreated with compound followed by UV irradiation for 30 mins by immunoprecipitation based Western blot analysis; assay type: cell-based
HEK293T [7] = assay: Stabilization of FLAG-tagged human HSP90 binding incompetent FKBP51 K352A/R356A mutant/human Akt complex in HEK293T cells assessed as increase in Akt co-immunoprecipitation at 1 uM by Western blot analysis; assay type: cell-based
HEK293T [8] = assay: Stabilization of FLAG-tagged human FKBP51 K52pBpa incorporation mutant/human Akt T308A mutant in HEK293T cells assessed as photocrosslinking adduct formation at 1 uM pretreated with compound followed by UV irradiation for 30 mins by immunoprecipitation based Western blot analysis; assay type: cell-based
HEK293T [9] = assay: Stabilization of FLAG-tagged human FKBP51 K52pBpa incorporation mutant/wild type Akt in HEK293T cells assessed as photocrosslinking adduct formation at 1 uM pretreated with compound followed by UV irradiation for 30 mins by immunoprecipitation based Western blot analysis; assay type: cell-based
HEK293T [10] = assay: Stabilization of FLAG tagged human FKBP51 N74pBpa incorporation mutant/human Akt complex in HEK293T cells assessed as increase in photocrosslinking pretreated with compound followed by UV irradiation by immunoprecipitation based Western blot analysis; assay type: cell-based
HEK293T [11] = assay: Stabilization of FLAG-tagged human FKBP51 K52pBpa incorporation mutant/human Akt S473D mutant in HEK293T cells assessed as photocrosslinking adduct formation at 1 uM pretreated with compound followed by UV irradiation for 30 mins by immunoprecipitation based Western blot analysis; assay type: cell-based
HEK293T [12] = assay: Stabilization of FLAG tagged human FKBP51 K52pBpa incorporation mutant/human Akt complex in HEK293T cells assessed as increase in Akt1 coimmunoprecipitation at 1 uM in absence of UV irradiation by immunoprecipitation based Western blot analysis; assay type: cell-based
HEK293T [13] = assay: Stabilization of FLAG-tagged human FKBP51 K52pBpa incorporation mutant/human Akt T308D mutant in HEK293T cells assessed as photocrosslinking adduct formation at 1 uM pretreated with compound followed by UV irradiation for 30 mins by immunoprecipitation based Western blot analysis; assay type: cell-based
[14] = target: T2, Peptidyl-prolyl cis-trans isomerase FKBP4 (Homo sapiens, UniProt Q02790); assay: Binding affinity to human FKBP52 FK1 domain expressed in Escherichia coli BL21 DE3 Gold assessed as dissociation constant incubated for 30 mins by competitive fluorescence polarization assay
T2 sequence (Q02790 whole entry): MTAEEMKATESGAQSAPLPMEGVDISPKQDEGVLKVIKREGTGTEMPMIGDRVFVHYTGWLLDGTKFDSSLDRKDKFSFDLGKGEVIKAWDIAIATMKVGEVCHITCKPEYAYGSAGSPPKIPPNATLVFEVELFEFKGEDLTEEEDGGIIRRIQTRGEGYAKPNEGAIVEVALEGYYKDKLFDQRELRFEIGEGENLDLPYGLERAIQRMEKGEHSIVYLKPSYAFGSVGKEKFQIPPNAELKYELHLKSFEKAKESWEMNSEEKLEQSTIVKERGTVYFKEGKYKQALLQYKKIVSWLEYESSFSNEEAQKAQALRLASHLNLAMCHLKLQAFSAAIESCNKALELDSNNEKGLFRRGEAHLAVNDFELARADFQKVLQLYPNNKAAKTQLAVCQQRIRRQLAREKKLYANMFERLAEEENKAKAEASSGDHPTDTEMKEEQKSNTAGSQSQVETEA

HEK293T [15] = assay: Stabilization of FLAG tagged human FKBP51 P120pBpa incorporation mutant/human Akt complex in HEK293T cells assessed as induction of photocrosslinking adduct formation at 1 uM pretreated with compound followed by UV irradiation for 30 mins by immunoprecipitation based Western blot analysis; assay type: cell-based
HEK293T [16] = assay: Stabilization of FLAG-tagged wild type human FKBP51/human Akt complex in HEK293T cells assessed as increase in Akt co-immunoprecipitation at 1 uM by Western blot analysis; assay type: cell-based
[17] = target: Peptidyl-prolyl cis-trans isomerase FKBP1B (Homo sapiens, UniProt P68106); assay: Binding affinity to human FKBP12.6 expressed in Escherichia coli BL21 DE3 Gold assessed as dissociation constant incubated for 30 mins by competitive fluorescence polarization assay
HEK293T [18] = assay: Stabilization of FLAG tagged human FKBP51 E75pBpa incorporation mutant/human Akt complex in HEK293T cells assessed as increase in photocrosslinking pretreated with compound followed by UV irradiation by immunoprecipitation based Western blot analysis; assay type: cell-based
HEK293T [19] = assay: Stabilization of FLAG tagged human FKBP51 P120pBpa incorporation mutant/human Akt complex in HEK293T cells assessed as increase in photocrosslinking at 1 uM pretreated with compound followed by UV irradiation for 30 mins by immunoprecipitation based Western blot analysis; assay type: cell-based

Sequence of Peptidyl-prolyl cis-trans isomerase FKBP1A (P62942 whole entry): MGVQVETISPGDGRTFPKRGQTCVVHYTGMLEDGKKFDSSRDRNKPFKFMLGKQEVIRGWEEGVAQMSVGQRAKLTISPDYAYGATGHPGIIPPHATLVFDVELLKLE
Sequence of Peptidyl-prolyl cis-trans isomerase FKBP1B (P68106 whole entry): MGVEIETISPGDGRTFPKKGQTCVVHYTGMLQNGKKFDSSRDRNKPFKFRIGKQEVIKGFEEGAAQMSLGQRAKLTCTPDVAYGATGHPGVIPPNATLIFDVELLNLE

Row | Kd [1] [nM] | Kd [3] [nM] | Kd [14] [nM] | Kd [17] [nM] | SMILES | Activity (HEK293T [2]) | Activity (HEK293T [4]) | Activity (HEK293T [5]) | Activity (HEK293T [6]) | Activity (HEK293T [7]) | Activity (HEK293T [8]) | Activity (HEK293T [9]) | Activity (HEK293T [10]) | Activity (HEK293T [11]) | Activity (HEK293T [12]) | Activity (HEK293T [13]) | Activity (HEK293T [15]) | Activity (HEK293T [16]) | Activity (HEK293T [18]) | Activity (HEK293T [19])
1 | 6.7 | 0.03 | 1.2 | 0.38 | C[C@@H]1/C=C/CC/C=C/C(=O)[C@H](C)[C@@H]2CC[C@@H](C)[C@@](O)(O2)C(=O)C(=O)N2CCCC[C@H]2C(=O)O[C@H]([C@H](C)C[C@@H]2CC[C@@H](O)[C@H](O)[C@H]2O)CC1 | Active | Active | Active | Active | Active | Active | Active | Active | Active | Active | Active | Active | Active | Active | Active
2 | 8.5 | – | 12 | – | CO[C@H]1C[C@@H]2CC[C@@H](C)[C@@](O)(O2)C(=O)C(=O)N2CCCC[C@H]2C(=O)O[C@H]([C@H](C)C[C@@H]2CC[C@@H](O)[C@H](OC)C2)CC(=O)[C@H](C)/C=C(\C)[C@@H](O)[C@@H](OC)C(=O)[C@H](C)C[C@H](C)/C=C/C=C/C=C/1C [SIROLIMUS] | – | – | – | – | – | – | – | – | – | – | – | inactive | – | – | –
3 | 75.9 | – | – | – | C=CC[C@@H]1/C=C(\C)C[C@H](C)C[C@H](OC)[C@H]2O[C@@](O)(C(=O)C(=O)N3CCCC[C@H]3C(=O)O[C@H](/C(C)=C/[C@@H]3CC[C@@H](O)[C@H](OC)C3)[C@H](C)[C@@H](O)CC1=O)[C@H](C)C[C@@H]2OC [TACROLIMUS ANHYDROUS] | – | – | – | – | – | – | – | – | – | – | – | inactive | – | – | –
